“And” between values parts separate entries of the source, which are not always exact repeats. Equal entries are not always repeated. The source made the active and inactive calls.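 The calls were made as follows: active = over 50% inhibition of probe labelling of the prolyl oligopeptidase-like enzyme in cells; inactive = inhibition at or below 50%.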
Target: Prolyl endopeptidase-like (Mus musculus) (UniProt Q8C167)
Assay: in situ blockade of mouse PREPL – cell-based, click chemistry ABPP, gel, fluorescence (AID 624485)
Details: Neuro-2A transfected mPrepl, in situ gel CC-ABPP; at 50 µM; hits give high values

Prolyl endopeptidase-like (Mus musculus), sequence (Q8C167 whole entry, looked up): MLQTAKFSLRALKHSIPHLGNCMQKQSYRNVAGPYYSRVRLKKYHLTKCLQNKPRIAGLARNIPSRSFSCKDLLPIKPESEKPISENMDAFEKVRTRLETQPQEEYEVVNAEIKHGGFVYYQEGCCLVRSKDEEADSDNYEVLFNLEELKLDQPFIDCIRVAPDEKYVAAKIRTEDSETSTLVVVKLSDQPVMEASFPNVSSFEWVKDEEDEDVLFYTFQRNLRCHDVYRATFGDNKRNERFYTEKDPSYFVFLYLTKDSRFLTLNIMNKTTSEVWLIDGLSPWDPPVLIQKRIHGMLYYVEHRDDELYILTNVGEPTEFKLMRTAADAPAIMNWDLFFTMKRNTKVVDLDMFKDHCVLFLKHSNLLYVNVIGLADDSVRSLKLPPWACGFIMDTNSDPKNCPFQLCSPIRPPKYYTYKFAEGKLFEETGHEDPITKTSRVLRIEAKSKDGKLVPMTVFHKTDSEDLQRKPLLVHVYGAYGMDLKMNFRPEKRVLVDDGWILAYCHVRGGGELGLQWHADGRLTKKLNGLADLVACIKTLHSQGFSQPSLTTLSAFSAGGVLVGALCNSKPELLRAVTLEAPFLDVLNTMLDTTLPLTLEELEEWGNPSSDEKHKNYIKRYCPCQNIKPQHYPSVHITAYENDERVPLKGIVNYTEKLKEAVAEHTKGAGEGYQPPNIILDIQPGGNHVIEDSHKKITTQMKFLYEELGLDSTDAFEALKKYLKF

Compound	inhibition
N#Cc1c2c(c(-c3ccccc3)[nH]c1=O)CCCC2	60%
O=C(Nc1ccc2c(c1)OCCO2)c1cccc2nc3ccccc3nc12	-26% (inactive)
CCOc1ccc(CCNC(=O)c2ccc3c(=O)[nH]c4c(C(=O)NC(C)C)sc(=S)n4c3c2)cc1	-29% (inactive) and 0% (inactive)
CC(C)Cc1[nH]c(=O)c(C#N)c2c1CCC2	90%

From PubChem BioAssay AID624485 (The Scripps Research Institute Molecular Screening Center, 2012)
